From patent publication US9891235B2, “Pathway specific assays for predicting irritable bowel syndrome diagnosis” (NESTEC S.A., priority 2013, dated 2018)

Tests used:
anti-KYA-L antibody = test: Competitive assay with biotinylated kynurenic acid, competitors; format: binding, rabbit; conditions: increasing amounts of competitor, FIG. 18
Method: Also, the cross-reactivity of the antiserum was tested using a competitive assay as diagramed in FIG. 12B. The biotinylated antigen (e.g., biotinylated Ser-D) was coated onto a streptavidin plate. Serotonin (5-HT) or pathway metabolites thereof (e.g., Tryp, 5-OH Tryp or 5-HIAA) in human serum were derivatized and added to the antiserum. The mixture was added to the plate and incubated for 1 hour at RT. The plate was washed several times with wash buffer. The goat anti-rabbit antibody-HRP conjugate solution was added and incubated for 1 hour at RT. The plate was washed several times in wash buffer. A color substrate was added for the colorimetric reaction and stop solution was added prior to reading the plate at 405 nm.
The cross-reactivity of the anti-KYA-L antibody was tested using the competitive assay described above. Briefly, kynurenic acid metabolites, such as L-kynurenine (Ky), 3-hydroxy-DL-kynurenine (H-Ky) and L-tryptophan (Tryp) were used to compete with biotinylated kynurenic acid for antibody binding.

[1] = Stability of 5-HT and 5-HIAA (TLC, loss of signal); format: physicochemical

## Nc1ccccc1C(=O)C[C@H](N)C(=O)O [Ky, L-kynurenine]
anti-KYA-L antibody
  effect of competitor on level of anti-KYA-L detected: did not change

## Nc1c(O)cccc1C(=O)CC(N)C(=O)O (racemic) [H-Ky, 3-hydroxy-DL-kynurenine]
anti-KYA-L antibody
  effect of competitor on level of anti-KYA-L detected: did not change

## N[C@@H](Cc1c[nH]c2ccccc12)C(=O)O [Trypt, L-tryptophan]
anti-KYA-L antibody
  effect of competitor on level of anti-KYA-L detected: did not change

## NCCCCCC(=O)Nc1ccc2nc(C(=O)O)cc(O)c2c1 [KYA-L, 6-(6-aminohexanamido)-4-hydroxyquinoline-2-carboxylic acid]
anti-KYA-L antibody
  effect of competitor on level of anti-KYA-L detected: competed

## NCCc1c[nH]c2ccc(O)cc12 [Compound 5-HT, serotonin]
[1]
  sensitivity to oxygen / stability: very unstable
[1]; 4° C., from thawing, TLC (FIG. 3)
  time in which degradation occurs: about 7 hours
[1]; during a period of 1 week
  stability (FIG. 4): unstable
